Data published in DBAASP.
In brackets after ≈: the same amount, converted by molar mass. Each block holds one molecule with its values, some of them ahead of it.

Experiments:
Test in all cases: ≥ marks a high value that may be exact or a test limit, other limits are often not marked, values filed in µg/mL are converted to µM
[1] = test system: Lacticaseibacillus rhamnosus 1.0911
[2] = test system: Staphylococcus aureus ATCC 43300
[3] = test system: Staphylococcus aureus ATCC 29213
[4] = test system: Escherichia coli ATCC 25922
[5] = test system: Staphylococcus aureus ATCC 25923
[6] = test system: Lacticaseibacillus rhamnosus 1.0936
[7] = test system: Lacticaseibacillus rhamnosus 1.0385
[8] = test system: Lacticaseibacillus rhamnosus 7469
[9] = test system: Salmonella enterica subsp. enterica serovar Pullorum C79-13
[10] = test system: Pseudomonas aeruginosa ATCC 27853
[11] = test system: Salmonella enterica subsp. enterica serovar Typhimurium C77-31
Escherichia coli K88 = test system: Escherichia coli K88
[12] = test system: Lactiplantibacillus plantarum 8014
Escherichia coli K99 = test system: Escherichia coli K99
Escherichia coli UB1005 = test system: Escherichia coli UB1005
[13] = test system: Salmonella enterica subsp. enterica serovar Typhimurium ATCC 14028
[14] = test system: Pseudomonas aeruginosa 15159
[15] = test system: Staphylococcus aureus FDA 486
[16] = test system: Staphylococcus aureus 2844
[17] = test system: Staphylococcus epidermidis ATCC 12228
[18] = test system: Cronobacter sakazakii ATCC 29544
[19] = test system: Bacillus subtilis ATCC 23857
[20] = test system: Candida krusei ATCC 20029
[21] = test system: Cryptococcus gattii ATCC 32608
[22] = test system: Acinetobacter baumannii ATCC 19606
[23] = test system: Staphylococcus aureus ATCC 33591
[24] = test system: Cryptococcus neoformans ATCC 24067
[25] = test system: Pseudomonas aeruginosa PAO1
[26] = test system: Klebsiella pneumoniae NCTC 9633
[27] = test system: Mycobacterium tuberculosis H37Ra
[28] = test system: Haemophilus influenzae ATCC 49247
[29] = test system: Bacillus anthracis Sterne 34F2
[30] = test system: Staphylococcus aureus USA 300
[31] = test system: Staphylococcus aureus NRS 72
[32] = test system: Escherichia coli DH5alpha
Bacillus subtilis 168 = test system: Bacillus subtilis 168
[33] = test system: Klebsiella pneumoniae ESBL 344/17
[34] = test system: Escherichia coli ESBL 521/17
[35] = test system: Staphylococcus aureus 1399/17
[36] = test system: Acinetobacter baumannii 7226/16
[37] = test system: Staphylococcus aureus SG511
Escherichia coli ML-35p = test system: Escherichia coli ML-35p
[38] = test system: Pseudomonas aeruginosa 522/17

Compound: CC(C)C[C@H](NC(=O)[C@H](CC(C)C)NC(=O)[C@H](Cc1c[nH]c2ccccc12)NC(=O)[C@H](Cc1c[nH]c2ccccc12)NC(=O)[C@H](Cc1c[nH]c2ccccc12)NC(=O)[C@H](CCCN=C(N)N)NC(=O)[C@H](CS)NC(=O)[C@H](Cc1ccccc1)NC(=O)[C@H](Cc1ccc(O)cc1)NC(=O)[C@H](CO)NC(=O)[C@H](C)NC(=O)[C@@H](N)CS)C(N)=O [CASYFCRWWWLL]
- MIC [1]: ≥ 64 µM
- MIC [2]: > 64 µM
- MIC [3]: > 64 µM
- MIC [4]: > 64 µM
- MIC [5]: > 64 µM
- MIC [6]: ≥ 64 µM
- MIC [7]: ≥ 64 µM
- MIC [8]: ≥ 64 µM
- MIC [9]: ≥ 64 µM
- MIC [10]: > 64 µM
- MIC [11]: ≥ 64 µM
- MIC (Escherichia coli K88): ≥ 64 µM
- MIC [12]: ≥ 64 µM
- MIC (Escherichia coli K99): ≥ 64 µM
- MIC (Escherichia coli UB1005): ≥ 64 µM
- MIC [13]: > 64 µM

Compound: CC[C@H](C)[C@H](N)C(=O)N[C@@H](CC(C)C)C(=O)NCC(=O)N[C@H](C(=O)N[C@H](C(=O)N[C@@H](CC(C)C)C(=O)NCC(=O)N[C@@H](CC(C)C)C(=O)N[C@@H](CC(C)C)C(=O)N[C@@H](CCCCN)C(=O)N[C@@H](Cc1ccccc1)C(=O)N[C@@H](CC(C)C)C(N)=O)[C@@H](C)CC)[C@@H](C)O [ILGTILGLLKFL]
- MIC [17]: 2 µM (≈ 2.6 µg/mL)
- MIC [3]: 4 µM (≈ 5.2 µg/mL)
- MIC [5]: 4 µM (≈ 5.2 µg/mL)
- MIC [18]: ≥ 256 µM
- MIC [19]: 4 µM (≈ 5.2 µg/mL)

Compound: CC(C)[C@H](NC(=O)[C@H](Cc1c[nH]c2ccccc12)NC(=O)[C@H](Cc1cnc[nH]1)NC(=O)[C@H](CCCN=C(N)N)NC(=O)[C@H](CCCN=C(N)N)NC(=O)[C@H](Cc1c[nH]c2ccccc12)NC(=O)[C@H](Cc1c[nH]c2ccccc12)NC(=O)[C@H](Cc1cnc[nH]1)NC(=O)[C@H](Cc1c[nH]c2ccccc12)NC(=O)[C@H](CCCN=C(N)N)NC(=O)[C@@H](N)CCCCN)C(=O)N[C@H](C(=O)N[C@@H](Cc1c[nH]c2ccccc12)C(N)=O)C(C)C [KRWHWWRRHWVVW]
- MIC [25]: 50 µM (≈ 101 µg/mL)
- MIC [26]: ≥ 80 µM
- MIC [27]: 2.5 µM (≈ 5.04 µg/mL)
- MIC [28]: ≥ 80 µM
- MIC [22]: 50 µM (≈ 101 µg/mL)
- MIC [29]: ≥ 80 µM
- MIC [30]: ≥ 80 µM
- MIC [31]: ≥ 80 µM
- MIC [32]: 25 µM (≈ 50.4 µg/mL)
- MIC (Bacillus subtilis 168): 0.2 µM (≈ 0.403 µg/mL)

Second part, the molecule after the results:

- MIC [14]: 10 µM (≈ 24.4 µg/mL)
- MIC [3]: 10 µM (≈ 24.4 µg/mL)
- MIC [15]: 5 µM (≈ 12.2 µg/mL)
- MIC [10]: 10 µM (≈ 24.4 µg/mL)
- MIC [16]: 5 µM (≈ 12.2 µg/mL)
Compound: CC(=O)N[C@@H](CCC(=O)O)C(=O)N[C@@H](Cc1c[nH]c2ccccc12)C(=O)N[C@@H](CCCCN)C(=O)N[C@@H](CCCN=C(N)N)C(=O)N[C@@H](Cc1c[nH]c2ccccc12)C(=O)N[C@H](C(=O)N[C@@H](CCC(N)=O)C(=O)N[C@@H](CCCN=C(N)N)C(=O)N[C@@H](Cc1c[nH]c2ccccc12)C(=O)N[C@@H](CCCCN)C(=O)N[C@@H](CC(=O)O)C(=O)N[C@@H](Cc1c[nH]c2ccccc12)C(=O)N[C@@H](CC(C)C)C(=O)N[C@@H](CCCN=C(N)N)C(=O)N[C@@H](CC(N)=O)C(=O)N[C@@H](CC(C)C)C(=O)N[C@H](C(N)=O)C(C)C)C(C)C [EWKRWVQRWKDWLRNLV]

- MIC [17]: 2.13 µM (≈ 3.99 µg/mL)
- MIC [20]: 30.5 µM (≈ 57 µg/mL)
- MIC [4]: 3.01 µM (≈ 5.63 µg/mL)
- MIC [21]: 3.38 µM (≈ 6.33 µg/mL)
- MIC [22]: 2.68 µM (≈ 5.02 µg/mL)
- MIC [10]: 24.2 µM (≈ 45.2 µg/mL)
- MIC [23]: 4.27 µM (≈ 7.99 µg/mL)
- MIC [24]: 8.55 µM (≈ 16 µg/mL)
Compound: CC[C@H](C)[C@H](NC(C)=O)C(=O)N[C@@H](Cc1c[nH]c2ccccc12)C(=O)N[C@@H](CC(C)C)C(=O)N[C@H](C(=O)N[C@@H](CCCCN)C(=O)N[C@@H](C)C(=O)N[C@@H](CC(C)C)C(=O)N[C@@H](CCCCN)C(=O)N[C@@H](Cc1ccccc1)C(=O)N[C@@H](CC(C)C)C(=O)NCC(=O)N[C@@H](CCCCN)C(=O)N[C@@H](CC(N)=O)C(=O)N[C@@H](CC(C)C)C(=O)NCC(=O)N[C@@H](CCCCN)C(N)=O)[C@@H](C)O [IWLTKALKFLGKNLGK]

- MIC [33]: 2 µM (≈ 6.48 µg/mL)
- MIC [34]: 2 µM (≈ 6.48 µg/mL)
- MIC [35]: 4 µM (≈ 13 µg/mL)
- MIC [36]: 8 µM (≈ 25.9 µg/mL)
- MIC [37]: 0.5 µM (≈ 1.62 µg/mL)
- MIC (Escherichia coli ML-35p): 4 µM (≈ 13 µg/mL)
- MIC [38]: 11.3 µM (≈ 36.6 µg/mL)
- MIC [23]: 16 µM (≈ 51.8 µg/mL)
Compound: CC[C@H](C)[C@H](NC(=O)[C@@H]1CCCN1C(=O)[C@@H]1CCCN1C(=O)[C@H](CCCN=C(N)N)NC(=O)[C@H](CCCN=C(N)N)NC(=O)[C@H](Cc1ccccc1)NC(=O)[C@@H]1CCCN1C(=O)[C@H](CC(C)C)NC(=O)[C@H](CCCN=C(N)N)NC(=O)[C@H](Cc1ccccc1)NC(=O)[C@@H](N)CCCN=C(N)N)C(=O)N[C@@H](CCCN=C(N)N)C(=O)N[C@H](C(=O)N1CCC[C@H]1C(=O)N1CCC[C@H]1C(=O)N1CCC[C@H]1C(=O)N[C@@H](Cc1ccccc1)C(=O)N[C@@H](Cc1ccc(O)cc1)C(=O)N1CCC[C@H]1C(=O)N1CCC[C@H]1C(=O)N[C@@H](Cc1ccccc1)C(=O)N[C@@H](CCCN=C(N)N)C(=O)N[C@@H](CCCN=C(N)N)C(=O)N[C@@H](Cc1ccccc1)C(=O)N[C@@H](CC(C)C)C(N)=O)[C@@H](C)CC [RFRLPFRRPPIRIPPPFYPPFRRFL]
